Test results: patent US9937179B2, “Combined treatment for cancer resistant to an epidermal growth factor receptor kinase inhibitor” (Pre Clinical Oncology Services Ltd., priority 2014, dated 2018)
“Also recorded” adds a separate entry of the source.

Columns and labels:
[1] = test system: HCC827-ER1 subcutaneous xenograft; details: s.c. HCC827-ER1 tumors, n=5/group
Description: (§1) Tumour measurements and body weights were taken 3 times weekly and treatment initiated when the tumours reached a mean volume of ˜200 mm^3 (n=5 per group).
(§2) Mice were anaesthetised and transported to the SARRP where CBCT (cone beam computed tomography) images were acquired. Using the MuriSlice software the isocenter of the tumour was identified and aligned with the central axis of the beam. […] A tolerability was performed initially to evaluate 3 Gy/day×5 days for 2 week.

[2] = test system: HCC827 subcutaneous xenograft; details: s.c. HCC827 tumours, n=5/group, Erlotinib 25 mg/kg po QD
Description: as §1, §2

SMILES	tumor growth inhibition compared with vehicle/control ([1]; drug alone, p<0.001, Erlotinib 25 mg/kg po QD)	tumor regression, drug combined with irradiation [1]	effect on tumor volume, drug alone [2]	tumor regression, drug alone ([1]; drug alone)
C[C@@H](Oc1cc(-c2cnn(C3CCNCC3)c2)cnc1N)c1c(Cl)ccc(F)c1Cl [Crizotinib, 3-[(1R)-1-(2,6-dichloro-3-fluorophenyl)ethoxy]-5-(1-piperidin-4-ylpyrazol-4-yl)pyridin-2-amine]	~60%	tumour regression was restored; also recorded: tumor regression was restored	no effect	
C#Cc1cccc(Nc2ncnc3cc(OCCOC)c(OCCOC)cc23)c1 [Erlotinib, N-(3-ethynylphenyl)-6,7-bis(2-methoxyethoxy) quinazolin-4-amine]		tumour regression was restored; also recorded: tumor regression was restored		no tumour regression; also recorded: no tumor regression
